Patent US12637413B2, “Fatty acid amide hydrolase (FAAH) cleavable prodrugs of thyromimetics and combination with peripherally restricted FAAH inhibitors” (Autobahn Therapeutics, Inc., priority 2021, dated 2026)
Where two headings read alike, the source gives them in different places.

Assays:
[1] = target: T1, recombinant human FAAH (rhFAAH) (Homo sapiens, UniProt O00519); experiment: FAAH substrate evaluation (acid metabolite formation); assay type: biochemical; details: observed rate constant for acid metabolite formation; 0.5 ng/μL rhFAAH, 1 μM test compound, room temperature, 0-60 minutes
T1 construct: purchased Cayman Chemical (Ann Arbor, MI, USA)
T1 sequence (O00519 1-579): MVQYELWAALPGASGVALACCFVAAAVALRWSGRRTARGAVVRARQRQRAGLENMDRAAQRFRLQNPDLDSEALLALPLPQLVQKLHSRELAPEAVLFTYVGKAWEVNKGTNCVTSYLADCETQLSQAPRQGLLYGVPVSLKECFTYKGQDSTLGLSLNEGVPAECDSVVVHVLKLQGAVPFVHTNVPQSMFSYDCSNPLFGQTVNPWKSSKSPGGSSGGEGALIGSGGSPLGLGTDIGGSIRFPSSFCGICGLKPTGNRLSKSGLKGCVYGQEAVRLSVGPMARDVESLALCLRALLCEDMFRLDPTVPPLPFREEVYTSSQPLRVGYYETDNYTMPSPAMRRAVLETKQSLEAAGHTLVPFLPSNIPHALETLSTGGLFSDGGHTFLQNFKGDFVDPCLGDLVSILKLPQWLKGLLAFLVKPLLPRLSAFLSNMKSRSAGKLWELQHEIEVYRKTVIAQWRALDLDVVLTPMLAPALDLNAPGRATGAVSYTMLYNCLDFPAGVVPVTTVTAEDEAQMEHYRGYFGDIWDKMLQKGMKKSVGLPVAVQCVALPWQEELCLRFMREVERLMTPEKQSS
Description: Purified recombinant human FAAH (rhFAAH) was purchased from Cayman Chemical (Ann Arbor, MI, USA). The total volume for each incubation was 400 μL containing a final 0.5 ng/μL rhFAAH, 1 μM test compound, 1.25% ethanol or 1 μM PF-3845 (FAAH inhibitor), and 0.1% bovine serum albumin in Tris-EDTA buffer at pH 8.0). The positive control was LL-341001. The incubation was conducted at the room temperature. At 0, 5, 15, 30 and 60 minutes, an aliquot of 30 μL reaction mixtures was removed and mixed with 300 μL acetonitrile containing 5 ng/mL terfenadine and 10 ng/mL tolbutamide as internal standards to quench the reaction. The resulting mixture was centrifuged at 4000 rpm, 4° C. for 15 minutes, and 100 μL supernatant was ready for LC-MS/MS analysis to measure the formation of acid metabolite.
Acquity Ultra Performance LC system from Waters was used for sample analysis. The chromatography was performed on a reverse phase Kinetex 2.6 μm C18 column, 2.1×30 mm, 100 Å. The mobile phase A comprised of 0.1% formic acid in water and mobile phase B comprised of 0.1% formic acid in acetonitrile with a 2-min run time at the flow rate of 0.8 mL/min for the acid metabolite from positive control or a 1.5 min run time at the flow rate of 0.9 mL/min for the acid metabolite of test compounds. The mass spectrometer (API-5500 and API Q Trap 4000 Applied Biosystems/MDS SCIEX Instruments, Framingham, MA, USA) was operated under ESI positive or negative ion MRM mode.
The formation of acid metabolite was monitored and quantified using one calibration point of 1 μM. The observed rate constant (ke) for the acid metabolite formation was calculated by plotting the metabolite concentration versus time of incubation with the slope being ke and is shown in Table 1.

T3-regulated genes = experiment: gene expression in brain and liver after 7 days PO QD dosing; assay type: in vivo, Female C57BL/6 mice; details: Mus musculus, PO QD 7 days, 4 or 8 h after last dose
Description: Female C57BL/6 mice (n=5/group), 6-8 weeks old, were acclimated to the study room for at least 3 days before dose administration in the studies. Mice were dosed at 5 mL/kg based on most recent body weight, collected once for the duration of the study. Based on most recent body weight, collected once for the duration of the study, mice were placed into weight-matched treatment dosing cohorts. Mice were given a single administration of PFI or vehicle orally (PO) daily (n=5/group) for 7 days at time=−1 hour. Following the PFI (100 μg/kg) or vehicle dose (10 mL/kg, p.o.), animals were given test article daily at time=0 hour. Test article administration one of eight dose levels (0.1, 0.3, 1, 3, 10, 30, 100 or 300 μg/kg) on Days 1-7 for a total of seven doses. Mice were dosed PO, QD for 7 days with (A) active metabolite or (B) prodrug alone; (C) prodrug+PFI (LL-650177) or (D) prodrug+GFI. […] RNA from samples harvested 4 hours after final dose was quantified using a hybridization-based in situ RNA quantification method (NanoString, Seattle, WA), as described below. RNA from samples harvested 8 hours after final dose was quantified using a hybridization-based in situ RNA quantification method (QuantiGene Plex), as described below. […]

In the case of `CNC(=O)COc1cc(Cl)c(Cc2ccc(O)c(C(C)C)c2)c(Cl)c1` [Compound 1], the ke [1] is reported as “A (ke is more than or equal to 0.1)”, the ED50 (T3-regulated genes; gene expression in brain, read-out: Brain (ED50 mg/kg)) is reported as 0.044 mg/kg and the ED50 (T3-regulated genes; gene expression in liver, read-out: Liver (ED50 mg/kg)) is reported as 0.0025 mg/kg.
